From ChEMBL document CHEMBL1124555, “9-Amino-1,2,3,4-tetrahydroacridin-1-ols: synthesis and evaluation as potential Alzheimer's disease therapeutics” (J Med Chem, 1989)
pIC50: −log10 of the molar value.

Columns and labels:
[1] = target: Norepinephrine transporter (Rattus norvegicus, UniProt Q9WTR4)
Description: Inhibition of norepinephrine reuptake in rat whole brains minus cerebellar

[2] = target: Sodium-dependent dopamine transporter (Rattus norvegicus, UniProt P23977); format: functional
Description: Inhibition of the reuptake of dopamine in rat corpora striata.

Acetylcholinesterase = target: T1, Acetylcholinesterase (Rattus norvegicus, UniProt P37136)
T1 sequence (P37136 whole entry): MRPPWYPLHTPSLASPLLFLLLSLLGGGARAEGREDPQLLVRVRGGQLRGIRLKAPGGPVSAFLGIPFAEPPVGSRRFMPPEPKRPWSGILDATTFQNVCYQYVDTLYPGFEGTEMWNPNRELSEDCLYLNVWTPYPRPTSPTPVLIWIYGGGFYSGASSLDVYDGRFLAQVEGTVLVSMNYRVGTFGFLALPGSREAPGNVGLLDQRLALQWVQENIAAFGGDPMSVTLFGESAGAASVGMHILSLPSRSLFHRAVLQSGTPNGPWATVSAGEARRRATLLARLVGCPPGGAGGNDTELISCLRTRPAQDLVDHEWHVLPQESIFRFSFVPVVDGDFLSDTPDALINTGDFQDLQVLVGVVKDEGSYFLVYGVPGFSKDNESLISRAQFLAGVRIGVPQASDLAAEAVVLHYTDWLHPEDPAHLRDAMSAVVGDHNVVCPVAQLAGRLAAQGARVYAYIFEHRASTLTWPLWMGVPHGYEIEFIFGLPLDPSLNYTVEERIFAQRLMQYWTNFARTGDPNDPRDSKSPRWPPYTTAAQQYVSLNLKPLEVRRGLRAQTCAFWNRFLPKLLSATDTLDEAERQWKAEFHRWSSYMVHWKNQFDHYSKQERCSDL
Description: In vitro inhibition against acetylcholinesterase in rat striata.

[3] = target: Sodium-dependent serotonin transporter (Rattus norvegicus, UniProt P31652); format: functional
Sequence of Sodium-dependent serotonin transporter (P31652 whole entry): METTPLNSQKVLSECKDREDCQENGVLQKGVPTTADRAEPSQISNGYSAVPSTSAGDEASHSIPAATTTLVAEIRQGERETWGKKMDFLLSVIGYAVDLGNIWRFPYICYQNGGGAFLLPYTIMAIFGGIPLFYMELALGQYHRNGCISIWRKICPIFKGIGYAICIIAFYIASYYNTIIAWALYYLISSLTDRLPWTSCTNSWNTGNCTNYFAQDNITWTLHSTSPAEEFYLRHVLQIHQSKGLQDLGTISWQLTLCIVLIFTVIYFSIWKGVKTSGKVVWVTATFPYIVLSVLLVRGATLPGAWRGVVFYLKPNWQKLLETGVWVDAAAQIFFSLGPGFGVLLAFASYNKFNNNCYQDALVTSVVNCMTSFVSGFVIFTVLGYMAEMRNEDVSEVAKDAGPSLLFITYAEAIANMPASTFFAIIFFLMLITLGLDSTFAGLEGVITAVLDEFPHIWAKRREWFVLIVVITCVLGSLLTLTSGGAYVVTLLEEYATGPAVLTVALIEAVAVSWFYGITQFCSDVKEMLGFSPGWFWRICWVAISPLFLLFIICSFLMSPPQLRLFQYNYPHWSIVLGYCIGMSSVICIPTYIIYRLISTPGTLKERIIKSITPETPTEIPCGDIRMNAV
Description: Inhibition of serotonin reuptake in rat whole brains without cerebellum

in vivo = conditions: rat, ip
Description: Toxicity evaluated in rats after intraperitoneal administration.

Mus musculus [4] = species: Mus musculus; format: functional; conditions: at 2.5 mg/kg
Description: Reversal of scopolamine-induced memory impairment in mice at 2.5 mg/Kg administered subcutaneously.

Mus musculus [5] = species: Mus musculus; format: functional; conditions: at […]
Description: Reversal of scopolamine-induced memory impairment in mice at 0.31 mg/Kg administered subcutaneously.

Mus musculus [6] = species: Mus musculus; format: functional; conditions: at 1.25 mg/kg
Description: Reversal of scopolamine-induced memory impairment in mice at 1.25 mg/Kg administered subcutaneously.

Mus musculus [7] = species: Mus musculus; format: functional; conditions: at 0.63 mg/kg
Description: Reversal of scopolamine-induced memory impairment in mice at 0.63 mg/Kg administered subcutaneously.

Mus musculus [8] = species: Mus musculus; format: functional; conditions: at 5 mg/kg
Description: Reversal of scopolamine-induced memory impairment in mice at 5 mg/Kg administered subcutaneously.

Mus musculus [9] = species: Mus musculus; format: functional; conditions: at 0.16 mg/kg
Description: Reversal of scopolamine-induced memory impairment in mice at 0.16 mg/Kg administered subcutaneously.

[10] = Toxicity was evaluated in rats, after intraperitoneal administration;Value ranges from (40-80).; format: organism-based; conditions: rat, in vivo, ip

Sequence of Norepinephrine transporter (Q9WTR4 whole entry): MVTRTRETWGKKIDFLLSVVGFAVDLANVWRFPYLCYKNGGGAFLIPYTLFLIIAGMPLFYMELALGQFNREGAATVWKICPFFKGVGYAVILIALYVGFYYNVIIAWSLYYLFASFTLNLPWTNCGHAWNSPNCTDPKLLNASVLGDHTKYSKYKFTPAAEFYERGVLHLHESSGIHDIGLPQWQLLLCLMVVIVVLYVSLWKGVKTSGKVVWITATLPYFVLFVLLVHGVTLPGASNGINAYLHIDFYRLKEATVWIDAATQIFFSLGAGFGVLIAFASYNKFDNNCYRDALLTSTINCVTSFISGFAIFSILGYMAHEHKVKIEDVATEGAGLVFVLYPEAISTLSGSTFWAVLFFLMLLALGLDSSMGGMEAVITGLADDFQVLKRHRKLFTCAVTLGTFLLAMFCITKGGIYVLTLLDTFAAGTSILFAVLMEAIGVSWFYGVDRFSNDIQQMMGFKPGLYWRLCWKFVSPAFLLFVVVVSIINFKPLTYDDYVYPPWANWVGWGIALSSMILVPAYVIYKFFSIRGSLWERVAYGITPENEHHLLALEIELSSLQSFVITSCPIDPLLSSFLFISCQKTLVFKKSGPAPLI
Sequence of Sodium-dependent dopamine transporter (P23977 whole entry): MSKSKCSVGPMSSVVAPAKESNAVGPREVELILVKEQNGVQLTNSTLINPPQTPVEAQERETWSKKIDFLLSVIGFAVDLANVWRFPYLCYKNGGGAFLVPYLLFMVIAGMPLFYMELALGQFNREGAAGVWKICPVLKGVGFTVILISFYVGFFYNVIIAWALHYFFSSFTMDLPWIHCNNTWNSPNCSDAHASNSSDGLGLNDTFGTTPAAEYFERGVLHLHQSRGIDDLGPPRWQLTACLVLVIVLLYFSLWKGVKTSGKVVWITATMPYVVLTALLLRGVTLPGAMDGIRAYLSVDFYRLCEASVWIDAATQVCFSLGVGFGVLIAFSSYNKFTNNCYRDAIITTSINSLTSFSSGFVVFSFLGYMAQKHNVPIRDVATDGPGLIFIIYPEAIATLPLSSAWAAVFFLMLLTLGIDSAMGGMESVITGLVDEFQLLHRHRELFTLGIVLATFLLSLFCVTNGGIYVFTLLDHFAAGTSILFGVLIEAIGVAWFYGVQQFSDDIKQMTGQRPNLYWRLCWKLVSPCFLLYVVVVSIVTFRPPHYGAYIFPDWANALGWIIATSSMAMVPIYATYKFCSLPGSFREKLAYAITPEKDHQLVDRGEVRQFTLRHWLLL

SMILES | pIC50 [1] | pIC50 [2] | pIC50 (Acetylcholinesterase) | pIC50 [3] | LD50 (in vivo) [mg/kg] | Animals (Mus musculus [4]) [%] | Animals (Mus musculus [5]) [%] | Animals (Mus musculus [6]) [%] | Animals (Mus musculus [7]) [%] | Animals (Mus musculus [8]) [%] | Animals (Mus musculus [9]) [%] | LD50 [10] [mg/kg]
O=C(O)/C=C/C(=O)O.OC1CCCc2nc3ccccc3c(NCc3cccs3)c21 (configuration not stated) | 6.54 | 5.62 | 4.82 | 4.70 | > 80 |  |  |  |  |  |  | 
O=C(O)/C=C/C(=O)O.OC1CCCc2nc3ccccc3c(NCc3c(F)c(F)c(F)c(F)c3F)c21 (configuration not stated) | 4.96 |  | 4.90 |  | > 80 | 0 | 7 | 13 | 7 | 20 | 7 | 
O=C(O)/C=C/C(=O)O.OC1CCCc2nc3ccccc3c(NCCCC(c3cccc(F)c3)c3cccc(F)c3)c21 (configuration not stated) |  |  | 4.20 |  | > 80 |  |  |  |  |  |  | 
OC1CCCc2nc3cc(Cl)ccc3c(NCc3ccc(F)cc3)c21 (configuration not stated) | 5.66 | 5.39 | 6.08 | 5.18 | > 80 | 0 | 7 | 7 | 7 | 0 | 13 | 
Nc1c2c(nc3cc(Cl)ccc13)CCCC2O (configuration not stated) | < 4.70 | < 4.70 | 7.93 | < 4.70 | > 10 | 0 | 7 | 7 | 0 | 16 | 7 | 
OC1CCCc2nc3ccccc3c(NCc3ccc(F)cc3)c21 (configuration not stated) | 5.74 | 5.54 | 4.78 | 4.92 |  | 33 | 20 | 27 | 25 | 6 | 7 | < 80
COc1ccc(CNc2c3c(nc4ccccc24)CCCC3O)cc1 (configuration not stated) | 4.60 | 5.28 | 4.96 | 5.30 | > 80 |  |  |  |  |  |  | 
CN(C)CCNc1c2c(nc3ccccc13)CCCC2O (configuration not stated) |  |  | 5.11 |  | > 80 |  |  |  |  |  |  | 
OC1CCCc2nc3ccccc3c(NCc3ccc(C(F)(F)F)cc3)c21 (configuration not stated) | 6.57 | 5.62 | 4.74 | 5.18 | > 80 | 0 | 8 | 15 | 7 | 20 | 22 | 
OC1CCCc2nc3cc(F)ccc3c(NCc3ccccc3)c21 (configuration not stated) | 6.70 |  | 5.06 |  |  | 0 | 0 | 0 | 0 | 0 | 13 | < 80
OC1CCCc2nc3ccccc3c(NCc3ccccc3Cl)c21 (configuration not stated) | 7.37 | 6.89 | 4.99 | 5.03 | > 80 | 13 | 27 | 27 | 7 | 7 | 0 | 
Nc1c2c(nc3cc(F)ccc13)CCCC2O (configuration not stated) | < 5.00 |  | 6.53 |  | 40 | 33 | 29 | 20 | 20 | 40 | 73 | 
OC1CCCc2nc3ccccc3c(NCCCC(c3ccc(F)cc3)c3ccc(F)cc3)c21 (configuration not stated) |  |  | 4.06 |  | > 80 |  |  |  |  |  |  | 
OC1CCCc2nc3cc(C(F)(F)F)ccc3c(NCc3ccccc3)c21 (configuration not stated) |  |  | 4.17 |  | > 80 |  |  |  |  |  |  | 
COc1ccc2c(N)c3c(nc2c1)CCCC3O (configuration not stated) |  |  | 5.70 |  | > 80 |  |  |  |  |  |  | 
